Reference: article PMC2905291, “A phase I study of the safety and pharmacokinetics of the histone deacetylase inhibitor belinostat administered in combination with carboplatin and/or paclitaxel in patients with solid tumours” (British Journal of Cancer, 2010)
Read-outs that look alike come from different tables or passages of the source. Each block holds one compound with its values, some of them ahead of it.

Key:
[1] = Carboplatin (platinum by ICP-MS) plasma pharmacokinetics in patients after belinostat and paclitaxel; type: in vivo, human; conditions: for AUCall / AUCinf / Cl / Cmax / T1/2 / Vss: mean±s.d.
Procedure: (§1) Blood samples for belinostat PK, when administered alone were taken pre-treatment, at the end of infusion and 5 min, 15, 30 min, 1 h, 2, 3 h, 3 h 15 min, 3 h 30 min, 4, 5, 6 h after infusion on days 1 and 3 of cycle 1. Samples for carboplatin or paclitaxel when administered after belinostat, were taken relative to the start of belinostat infusion at 3 h (pre-carboplatin or-paclitaxel), 3 h 15 min, 3 h 30 min, 4, 5 and 6 h in cycle 1 on day 3. In addition, samples were taken for BelCaP when administered together at 6 h 15 min, 6 h 30 min, 7, 8, 9 and 24 h after belinostat on day 3. Belinostat and paclitaxel levels were determined in lithium-heparinised plasma using validated solid-phase extraction high performance liquid chromatograpgy (HPLC)-tandem mass spectrometric detection (MS/MS) methods (Covance, Indianapolis, IN, USA). The lower limit of quantitation was 5 and 10 ng ml^−1 for belinostat and paclitaxel, respectively. Belinostat plasma concentrations were determined at Covance using a validated method involving solid-phase extraction, separation with acetic acid acetonitril gradient on reversed phase C18 silica and MS/MS using penta-deuterated belinostat as the internal standard. Belinostat and the internal standard were detected using negative ion electron spray with the transition from 317 to 143 and 322 to 143 m z^−1, respectively.
Human plasma samples were analysed for Pt from carboplatin by inductively coupled plasma-mass spectrometry after dilution with 0.01% Triton X-100 in 0.1% nitric acid. The samples were analysed without pre-digestion or extraction directly against matrix-matched standard solutions. Intensity, as counts per second from Pt, mass 195, was measured. Terbium, mass 159, was used as an internal standard. The results were calculated from the net intensity ratio of Pt to internal standard. The standard curve range was 2.00–1000 ng Pt ml^−1 in plasma. Samples above the calibration range were diluted using blank human plasma.
(§2) Plasma concentration–time curves of all three analytes were analysed by non-compartmental methods using WinNonlin (version 4.0.1 Pharsight Corp., Cary, NC, USA). For all analytes the AUC was estimated from the start of infusion by the logarithmic-linear trapezoidal rule and extrapolated to infinity using the estimated value of the slope of the terminal logarithmic-linear disposition phase. Analysis was carried out on the non-dose-normalised plasma concentration of carboplatin, as dosing had already been normalised per GFR using Calvert's formula ([Calvert et al, 1989]).

[2] = Paclitaxel plasma pharmacokinetics in patients after belinostat (LC-MS/MS, non-compartmental); type: in vivo, human
Procedure: as §1
Paclitaxel and the internal standard, cephalomannine, are extracted from human plasma by solid-phase extraction on a cyanopropyl solid-phase extraction cartridge. After eluting with the mobile phase, the eluent is directly analysed using liquid chromatography with MS/MS. The standard curve range for this assay is from 10.0 to 2000 ng ml^−1 for paclitaxel, using a plasma sample volume of 0.250 ml.
as §2

[3] = system: patients with solid tumours; conditions: ref Munster et al, cited from earlier work; for patients who responded: valproic acid with epirubicin, 2009
[4] = system: patients with advanced solid malignancies; parameters: method as in Ramalingam et al, 2007a; conditions: ref Ramalingam et al, 2007a, cited from earlier work
[5] = carboplatin equivalents from total platinum, target AUC 5 i.v. day 3 after belinostat 600 mg m^−2 and paclitaxel, 7 patients
[6] = carboplatin equivalents from total platinum, target AUC 5 i.v. day 3 after belinostat 800 mg m^−2 and paclitaxel, 3 patients
[7] = carboplatin equivalents from total platinum, target AUC 5 i.v. day 3 after belinostat 1000 mg m^−2 and paclitaxel, 7 patients
[8] = carboplatin equivalents, target AUC 5 i.v. day 3, Total Mean over all belinostat dose levels
[9] = human, plasma, iv, paclitaxel 175 mg m^−2 i.v. day 3 after belinostat 600 mg m^−2, 6 patients, mean±s.d.
[10] = human, plasma, iv, paclitaxel 175 mg m^−2 i.v. day 3 after belinostat 800 mg m^−2, 3 patients, mean±s.d.
[11] = human, plasma, iv, paclitaxel 175 mg m^−2 i.v. day 3 after belinostat 1000 mg m^−2, 7 patients, mean±s.d.
[12] = paclitaxel 175 mg m^−2 i.v. day 3 after belinostat 600 mg m^−2, 6 patients, mean±s.d.
[13] = paclitaxel 175 mg m^−2 i.v. day 3 after belinostat 800 mg m^−2, 3 patients, mean±s.d.
[14] = paclitaxel 175 mg m^−2 i.v. day 3 after belinostat 1000 mg m^−2, 7 patients, mean±s.d.
[15] = valproic acid combined with epirubicin, 2007
[16] = vorinostat with carboplatin and paclitaxel, 25 patients treated

Compound: N.N.O=C([O-])C1(C(=O)[O-])CCC1.[Pt+2] [carboplatin]
effect of concurrent administration on pharmacokinetics ([1]; carboplatin after belinostat): unaltered
AUCall [1, 5]: 7.8 ± 1.4 mg·min/mL
AUCinf [1, 5]: 8.8 ± 1.3 mg·min/mL
Cl [1, 5]: 4.4 ± 0.9 L/h
Cmax [1, 5]: 27400 ± 4000 ng/mL
T1/2 [1, 5]: 7.8 ± 2.7 h
Vss [1, 5]: 34.3 ± 16.1 L
AUCall [1, 6]: 8.9 ± 2.1 mg·min/mL
AUCinf [1, 6]: 9.7 ± 1.9 mg·min/mL
Cl [1, 6]: 4.1 ± 0.5 L/h
Cmax [1, 6]: 32800 ± 11700 ng/mL
T1/2 [1, 6]: 5.4 ± 1.0 h
Vss [1, 6]: 21.9 ± 7.6 L
AUCall [1, 7]: 8.4 ± 1.0 mg·min/mL
AUCinf [1, 7]: 9.3 ± 1.1 mg·min/mL
Cl [1, 7]: 3.5 ± 0.8 L/h
Cmax [1, 7]: 29600 ± 14000 ng/mL
T1/2 [1, 7]: 6.0 ± 0.8 h
Vss [1, 7]: 20.4 ± 3.5 L
AUCall [1, 8]: 8.2 ± 1.4 mg·min/mL
AUCinf [1, 8]: 9.2 ± 1.3 mg·min/mL
Cl [1, 8]: 3.9 ± 0.8 L/h
Cmax [1, 8]: 29200 ± 1000 ng/mL
T1/2 [1, 8]: 6.6 ± 2.1 h
Vss [1, 8]: 26.4 ± 12.5 L

AUC [2, 9]: 14 ± 2.5 µM·h
AUC(0-inf) [2, 9]: 14.7 ± 2.6 µM·h
Cmax [2, 9]: 3.9 ± 0.7 µM
half-life [2, 9]: 5.7 ± 0.5 h
AUC [2, 10]: 12.8 ± 1.7 µM·h
AUC(0-inf) [2, 10]: 13.3 ± 2 µM·h
half-life [2, 10]: 5.5 ± 1.1 h
AUC [2, 11]: 14.4 ± 3.8 µM·h
AUC(0-inf) [2, 11]: 15 ± 4 µM·h
half-life [2, 11]: 5.5 ± 0.6 h
Cl [2, 12]: 14.3±2.2 l h^−1 m^−2
Vss [2, 12]: 56.6±21.2 l m^−2
Cl [2, 13]: 15.7±2.6 l h^−1 m^−2
Vss [2, 13]: 53.0±3.0 l m^−2
Cl [2, 14]: 14.8±4.9 l h^−1 m^−2
Vss [2, 14]: 57.2±31.7 l m^−2
effect of concurrent administration on pharmacokinetics ([2]; paclitaxel after belinostat): unaltered
Compound: CC(=O)O[C@H]1C(=O)[C@@]2(C)[C@H]([C@H](OC(=O)c3ccccc3)[C@]3(O)C[C@H](OC(=O)[C@H](O)[C@@H](NC(=O)c4ccccc4)c4ccccc4)C(C)=C1C3(C)C)[C@]1(OC(C)=O)CO[C@@H]1C[C@@H]2O [paclitaxel]

Compound: CCCC(CCC)C(=O)O [valproic acid]
dose-limiting toxicities [3, 15]: neurological DLTs
grade II–III QTc prolongation, patients [3, 15]: approximately 25%
patients who responded ([3]; of 41 patients with a variety of solid tumours): 9
patients who responded ([3]; phase II portion, breast cancer): 64%

Compound: O=C(CCCCCCC(=O)Nc1ccccc1)NO [vorinostat]
grade III/IV neutropenia, patients ([4]; vorinostat with carboplatin and paclitaxel at higher dose than present study): 50%
patients with PR, head and neck cancer [4, 16]: 1
patients with PR, non-small-cell lung cancer [4, 16]: 10
